Test results reported in US11026876B2, “Composition for improving skin condition comprising chemokines” (TEGO SCIENCE INC., priority 2016, dated 2021).

Columns and labels:
Type in all cases: cell-based
[1] = test system: keratinocytes; test: Evaluation of chemotaxis of keratinocytes (Transwell insert migration); details: six hours, FIG. 1; for migration of keratinocytes compared to the negative control: 100 or 500 ng/ml chemokine in lower chamber, vs group not treated with a chemokine; for number of migrated keratinocytes relative to SDF-1α: 100 or 500 ng/ml chemokine, vs SDF-1α positive control
Method: The keratinocytes isolated from normal skin tissue were cocultured with 3T3 feeder cells in a DMEM/F12 medium (Invitrogen™, Thermo Fisher Scientific Inc., United States) containing 10% fetal bovine serum (FBS) in a humid environment of 37° C. and 10% CO2. When the cultured cells grew by 70 to 80%, the 3T3 feeder cells were removed and only the keratinocytes were isolated using trypsin-EDTA.
To evaluate chemotaxis of keratinocytes in response to BLC (CXCL13) or TECK (CCL25), cells were cultured using a Transwell® insert (Falcon®, Corning Incorporated, United States) with an opening size of 8 μm, and the number of cells migrated passing through micropores in the insert toward the chemokine were counted. Specifically, the lower chamber of the insert was treated with a chemokine (100 or 500 ng/ml BLC (CXCL13) or 100 or 500 ng/ml TECK (CCL25)), and then cells were placed in wells of the insert in a ratio of 1×10^4 cells per well. After cell incubation in a humid environment of 37° C. and 10% CO2 for six hours, the insert membrane was stained with hematoxylin, and then the number of migrated cells were counted.

[2] = test system: proliferation marker Ki-67; test: Expression of proliferation marker Ki-67 in three-dimensional skin culture model (immunofluorescence); details: 100 ng/ml chemokine, 48 hours, Neoderm®-ED, FIGS. 3 and 5; for expression of proliferation marker Ki-67 compared to SDF-1α: vs SDF-1α; for expression of proliferation marker Ki-67 compared to the negative control: vs untreated group
Method: (§1) To evaluate the effects of skin regeneration and skin elasticity improvement, a Neoderm®-ED was treated with a 100 ng/ml chemokine (BLC (CXCL13) or TECK (CCL25)) and incubated in a humid environment of 37° C. and 10% CO2 for 48 hours. Then, the Neoderm®-ED was reacted with primary antibodies that bind to markers (i.e., proliferation marker Ki-67 and collagen IV) used to confirm the ability to induce skin regeneration and skin elasticity and then with secondary antibodies labeled with a fluorescent substance. Cell nuclei were stained with 4′,6-diamidino-2-phenylindole (DAPI).

[3] = test system: wound on Neoderm®-ED three-dimensional skin culture model; test: Wound-healing effect (re-epithelialization) in three-dimensional skin culture model; details: 500 ng/ml chemokine, five days, FIG. 2; for length of re-epithelialization compared to the negative control: 4-mm biopsy punch wound, vs untreated group; for length of re-epithelialization relative to SDF-1α: vs SDF-1α
Method: A Neoderm®-ED (TEGO Science, Korea) consisting of the dermis including collagen and fibroblasts and the epidermis including keratinocytes was prepared. A wound was induced on the Neoderm®-ED using a 4-mm biopsy punch, and the wound was treated with a 500 ng/ml chemokine (BLC (CXCL13) or TECK (CCL25)) and incubated in a humid environment of 37° C. and 10% CO2 for five days. The cultured Neoderm®-ED tissue was separated from insert wells and stained with hematoxylin and eosin (H&E staining). The stained tissue was placed on a glass slide and photographed under a microscope. The obtained images were analyzed using Image-Pro™ image analysis software (Media Cybernetics, Inc., United States) to measure a length of re-epithelialization of the wound.

[4] = test system: collagen IV; test: Expression of collagen IV in three-dimensional skin culture model (immunofluorescence); details: 100 ng/ml chemokine, 48 hours, Neoderm®-ED, FIG. 4; for expression of collagen IV compared to SDF-1α: vs SDF-1α; for expression of collagen IV compared to the negative control: vs untreated group
Method: as §1

In the case of “B lymphocyte chemoattractant [BLC (CXCL13)]”, the “migration of keratinocytes compared to the negative control” value [1] is reported as “increased”, the “number of migrated keratinocytes relative to SDF-1α” value [1] is reported as “at least five times more” and the “expression of proliferation marker Ki-67 compared to SDF-1α” value [2] is reported as “increased more significantly”. For the same molecule, the “expression of proliferation marker Ki-67 compared to the negative control” value [2] was “increased”, the “length of re-epithelialization compared to the negative control” value [3] was “significantly greater length” and the “length of re-epithelialization relative to SDF-1α” value [3] was “at least a three times greater length”. For the same molecule, the “expression of collagen IV compared to SDF-1α” value [4] was “increased more significantly” and the “expression of collagen IV compared to the negative control” value [4] was “increased”.

B1: thymus-expressed chemokine (protein, UniProt O15444 24-150, looked up)
C-C motif chemokine 25: QGVFEDCCLAYHYPIGWAVLRRAWTYRIQEVSGSCNLPAAIFYLPKRHRKVCGNPKSREVQRAMKLLDARNKVFAKLHHNTQTFQAGPHAVKKLSSGNSKLSSSKFSNPISSSKRNVSLLISANSGL
In the case of B1, the “migration of keratinocytes compared to the negative control” value [1] is reported as “increased”, the “number of migrated keratinocytes relative to SDF-1α” value [1] is reported as “at least five times more” and the “expression of proliferation marker Ki-67 compared to SDF-1α” value [2] is reported as “increased more significantly”. For the same molecule, the “expression of proliferation marker Ki-67 compared to the negative control” value [2] was “increased”, the “length of re-epithelialization compared to the negative control” value [3] was “significantly greater length” and the “length of re-epithelialization relative to SDF-1α” value [3] was “at least a three times greater length”. For the same molecule, the “expression of collagen IV compared to SDF-1α” value [4] was “increased more significantly” and the “expression of collagen IV compared to the negative control” value [4] was “increased”.
